Test results reported in US9469650B2, “Melampomagnolide B derivatives” (BOARD OF TRUSTEES OF THE UNIVERSITY OF ARKANSAS, priority 2013, dated 2016).
Like-named read-outs stand apart in the source and are kept apart here.

What was measured:
PC-3 = experiment: panel of 60 human tumor cell lines, growth inhibition (Prostate Cancer); details: for Percent Growth: PC-3
SF-539 = experiment: panel of 60 human tumor cell lines, growth inhibition (CNS Cancer)
SK-MEL-2 = experiment: panel of 60 human tumor cell lines, growth inhibition (Melanoma)
SK-MEL-28 = experiment: as above
SNB-19 = experiment: panel of 60 human tumor cell lines, growth inhibition (CNS Cancer)
MDA-MB-468 = experiment: panel of 60 human tumor cell lines, growth inhibition (Breast Cancer)
KM12 = experiment: panel of 60 human tumor cell lines, growth inhibition (Colon Cancer)
CAKI-1 = experiment: panel of 60 human tumor cell lines, growth inhibition (Renal Cancer)
NCI/ADR-RES = experiment: panel of 60 human tumor cell lines, growth inhibition (Ovarian Cancer)

Structure (SMILES): C=C1C(=O)O[C@H]2[C@H]1CC/C(COC(=O)CCC(=O)NCc1ccc(Cl)nc1)=C\CC[C@@]1(C)O[C@@H]21 [JVM 96]
- IC (TGI) (PC-3; Homo sapiens, PC-3, read-out: TGI): 34.3 µM
- Percent Growth (PC-3; Log10 Concentration −4.0): −68%
- Percent Growth (PC-3; Log10 Concentration −5.0): 78%
- Percent Growth (PC-3; Log10 Concentration −6.0): 93%
- Percent Growth (PC-3; Log10 Concentration −7.0): 92%
- Percent Growth (PC-3; Log10 Concentration −8.0): 90%
- Percent Growth (HL-60(TB); Log10 Concentration −4.0): −48%
- Percent Growth (HL-60(TB); Log10 Concentration −5.0): −5%
- Percent Growth (HL-60(TB); Log10 Concentration −6.0): 76%
- Percent Growth (HL-60(TB); Log10 Concentration −7.0): 78%
- Percent Growth (HL-60(TB); Log10 Concentration −8.0): 91%
- GI50 (SF-539; Homo sapiens, SF-539): 3.25 µM
- CC50 (SF-539; Homo sapiens, SF-539, read-out: LC50): 40.8 µM
- IC (TGI) (SF-539; Homo sapiens, SF-539, read-out: TGI): 12.2 µM
- Percent Growth (SF-539; SF-539, Log10 Concentration −4.0): −87%
- Percent Growth (SF-539; SF-539, Log10 Concentration −5.0): 8%
- Percent Growth (SF-539; SF-539, Log10 Concentration −6.0): 94%
- Percent Growth (SF-539; SF-539, Log10 Concentration −7.0): 85%
- Percent Growth (SF-539; SF-539, Log10 Concentration −8.0): 96%
- GI50 (SK-MEL-2; Homo sapiens, SK-MEL-2): 11.3 µM
- CC50 (SK-MEL-2; Homo sapiens, SK-MEL-2, read-out: LC50): 64.1 µM
- IC (TGI) (SK-MEL-2; Homo sapiens, SK-MEL-2, read-out: TGI): 26.9 µM
- Percent Growth (SK-MEL-2; SK-MEL-2, Log10 Concentration −4.0): −76%
- Percent Growth (SK-MEL-2; SK-MEL-2, Log10 Concentration −5.0): 57%
- Percent Growth (SK-MEL-2; SK-MEL-2, Log10 Concentration −6.0): 97%
- Percent Growth (SK-MEL-2; SK-MEL-2, Log10 Concentration −7.0): 92%
- Percent Growth (SK-MEL-2; SK-MEL-2, Log10 Concentration −8.0): 90%
- GI50 (SK-MEL-28; Homo sapiens, SK-MEL-28): 3.44 µM
- CC50 (SK-MEL-28; Homo sapiens, SK-MEL-28, read-out: LC50): 46 µM
- IC (TGI) (SK-MEL-28; Homo sapiens, SK-MEL-28, read-out: TGI): 14.8 µM
- Percent Growth (SK-MEL-28; SK-MEL-28, Log10 Concentration −4.0): −84%
- Percent Growth (SK-MEL-28; SK-MEL-28, Log10 Concentration −5.0): 17%
- Percent Growth (SK-MEL-28; SK-MEL-28, Log10 Concentration −6.0): 8.8. Percent
- Percent Growth (SK-MEL-28; SK-MEL-28, Log10 Concentration −7.0): 91%
- Percent Growth (SK-MEL-28; SK-MEL-28, Log10 Concentration −8.0): 92%
- GI50 (SNB-19; Homo sapiens, SNB-19): 15.6 µM
- CC50 (SNB-19; Homo sapiens, SNB-19, read-out: LC50): > 100 µM
- IC (TGI) (SNB-19; Homo sapiens, SNB-19, read-out: TGI): 42.3 µM
- Percent Growth (SNB-19; SNB-19, Log10 Concentration −4.0): −43%
- Percent Growth (SNB-19; SNB-19, Log10 Concentration −5.0): 72%
- Percent Growth (SNB-19; SNB-19, Log10 Concentration −6.0): 88%
- Percent Growth (SNB-19; SNB-19, Log10 Concentration −7.0): 96%
- Percent Growth (SNB-19; SNB-19, Log10 Concentration −8.0): 93%
- GI50 (MDA-MB-468; Homo sapiens, MDA-MB-468): 1.54 µM
- CC50 (MDA-MB-468; Homo sapiens, MDA-MB-468, read-out: LC50): 44.6 µM
- IC (TGI) (MDA-MB-468; Homo sapiens, MDA-MB-468, read-out: TGI): 7.38 µM
- Percent Growth (MDA-MB-468; MDA-MB-468, Log10 Concentration −4.0): −72%
- Percent Growth (MDA-MB-468; MDA-MB-468, Log10 Concentration −5.0): −10%
- Percent Growth (MDA-MB-468; MDA-MB-468, Log10 Concentration −6.0): 64%
- Percent Growth (MDA-MB-468; MDA-MB-468, Log10 Concentration −7.0): 94%
- Percent Growth (MDA-MB-468; MDA-MB-468, Log10 Concentration −8.0): 88%
- GI50 (KM12; Homo sapiens, KM12): 17.7 µM
- CC50 (KM12; Homo sapiens, KM12, read-out: LC50): 67.9 µM
- TGI (KM12; KM12): 3.46E−5
- Percent Growth (KM12; KM12, Log10 Concentration −4.0): −79%
- Percent Growth (KM12; KM12, Log10 Concentration −5.0): 92%
- Percent Growth (KM12; KM12, Log10 Concentration −6.0): 104%
- Percent Growth (KM12; KM12, Log10 Concentration −7.0): 100%
- Percent Growth (KM12; KM12, Log10 Concentration −8.0): 98%
- Percent Growth (CAKI-1; CAKI-1, Log10 Concentration −4.0): −93%
- Percent Growth (CAKI-1; CAKI-1, Log10 Concentration −5.0): 41%
- Percent Growth (CAKI-1; CAKI-1, Log10 Concentration −6.0): 87%
- Percent Growth (CAKI-1; CAKI-1, Log10 Concentration −7.0): 85%
- Percent Growth (CAKI-1; CAKI-1, Log10 Concentration −8.0): 93%
- GI50 (CAKI-1; Homo sapiens, CAKI-1): 6.37 µM
- CC50 (CAKI-1; Homo sapiens, CAKI-1, read-out: LC50): 47.9 µM
- IC (TGI) (CAKI-1; Homo sapiens, CAKI-1, read-out: TGI): 20.3 µM
- GI50 (NCI/ADR-RES; Homo sapiens): 31.1 µM
- CC50 (NCI/ADR-RES; Homo sapiens, read-out: LC50): > 100 µM
- IC (TGI) (NCI/ADR-RES; Homo sapiens, read-out: TGI): > 100 µM
- Percent Growth (NCI/ADR-RES; Log10 Concentration −4.0): 6%
- Percent Growth (NCI/ADR-RES; Log10 Concentration −5.0): 93%
- Percent Growth (NCI/ADR-RES; Log10 Concentration −6.0): 107%
- Percent Growth (NCI/ADR-RES; Log10 Concentration −7.0): 101%
- Percent Growth (NCI/ADR-RES; Log10 Concentration −8.0): 101%
